The test deals with CEM cells HIV-1 protection, formazan growth assay. Kind of test: NCI AIDS Antiviral Assay. As to conditions: for pIC50: measured here: growth of uninfected CEM cells. A digest of the protocol: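 Steps: treat uninfected and HIV-1-infected human CEM cells at five drug levels; quantify growth by soluble formazan; retest any compound reaching 50% protection; classify actives from the retest.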

pEC50, pIC50: −log10 of the molar value. Calls of active or inactive are those of the source.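 The calls were made as follows: active = compounds giving half or more protection of infected cells from virus-caused growth loss, again on retest; inactive = the rest.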 Where a SMILES comes first, the peptide text is derived from it. Bridges are numbered along the chain shown (N, C = ends).

Consider `N#C/C(=C\c1ccc(O)c(O)c1)C(=O)N[C@@H]1CCC[C@@H](NC(=O)/C(C#N)=C/c2ccc(O)c(O)c2)C1`, for which the pEC50 was less than 3.70 and the pIC50 is 4.91.
Take `O=C(Nc1ccc(Cl)cc1)NS(=O)(=O)c1c(-c2ccccc2)oc2ccccc2c1=O`: the result was inactive.
As to `S=C1N(c2ccc(Br)cc2)C2=Nc3ccccc3SC(=C2N=Nc2ccccc2)N1c1ccc(Cl)cc1`, the pEC50 was less than 4.43 and the pIC50 was 4.77.
On to `OC1CN2CCS[C@H]2C(O)C1O` (some centres undefined), for which the pEC50 is less than 3.70 and the pIC50 is less than 3.70.
On to `CCOC(=O)c1nc2ccc(C(F)(F)F)cc2nc1Nc1ccc(Cl)c(Cl)c1`, for which the result was inactive.
Consider `Cc1cc(=O)n(-c2ccccc2C)c(C)n1`, for which the pEC50 was less than 3.00 and the pIC50 was less than 3.00.
For the molecule `CCCCCCOc1ccc(C(=O)N(C)O)cc1`, the pEC50 was less than 3.70 and the pIC50 was 4.94.
In the same order, the values of `OC(c1ccc(F)cc1)C(F)(F)c1nc2ccccc2o1` (centres undefined) are less than 3.70 and less than 3.70.
In the same order, the values of `Cc1ccc2ccccc2c1CC1S(=O)(=O)OCCOS1(=O)=O` are less than 3.70 and 3.94.
Turning to `COc1ccccc1NC(=S)NN=C(C)c1cccc(C(C)=NNC(=S)Nc2ccccc2OC)n1`, the pEC50 is less than 3.70 and the pIC50 is 4.46.
Consider `CCN(CCCl)c1cc(C(=O)Nc2cc(NC(=O)c3cc(N(CC)CCCl)c([N+](=O)[O-])cc3[N+](=O)[O-])cc(C(=O)NCCN(C)C)c2)c([N+](=O)[O-])cc1[N+](=O)[O-]`, for which the pEC50 was less than 3.70 and the pIC50 was 3.90.
In turn, `O=C(CCCC[n+]1ccccc1)Sc1ccccc1C(=O)NCc1ccc2c(c1)OCO2` had a pEC50 of less than 3.70 and a pIC50 of 5.52.
Take `CSc1ncc2c(n1)sc1c(=O)n(-c3ccccc3)cnc12`: the pEC50 was less than 3.70 and the pIC50 was less than 3.70.
On to `CC12OC3(C)c4ccccc4OP3(c3ccccc3)(Oc3ccccc31)O2` (centres undefined), for which the pEC50 was less than 4.10 and the pIC50 was less than 4.10.
For `O=c1ccn([C@H]2CSC[C@@H](CO)C2)c(=O)[nH]1`, the pEC50 was less than 2.99 and the pIC50 was less than 2.99.
Regarding `COc1ccccc1NC(=O)C1=C(C)NC(C)=C(C(=O)Nc2ccccc2OC)C1c1cccc2ccccc12`, the pEC50 is less than 5.01 and the pIC50 was less than 5.01.
For the molecule `O=c1oc2c(O)c(O)cc3c(=O)oc4c(O)c(O)cc1c4c23`, the pEC50 was less than 4.18 and the pIC50 is 4.37.
Taken in the same sequence, the figures for `O=C1CSC(=S)N1N1C(=O)CSC1=S` were less than 3.70 and less than 3.70.
Taken in the same sequence, the figures for `Cc1nc2[nH]c(=S)[nH]c(=O)c2[nH]c1=O` were less than 3.70 and less than 3.70.
Taken in the same sequence, the figures for `CC(O)c1c2c(cc3c1CC1(C3)Cc3cc4c(c(C(C)O)c3C1)CCC4)CCC2` (centres undefined) were less than 3.70 and 5.02.
As to `Cc1cc2c(c3ncccc13)OCN(Cc1ccc(Cl)cc1)C2`, the pEC50 was less than 3.70 and the pIC50 is 5.97.
Taken in the same sequence, the figures for `Cc1cc(-c2ccccc2)nc(Nc2cc3ccccc3[nH]2)n1` were less than 3.22 and less than 3.22.
With `CSC1SCC2C(=O)N(C)C3(CC3C)C(=O)OCC(NC(=O)c3nc4ccccc4cc3O)C(=O)NC(C)C(=O)N(C)C1C(=O)N(C)C1(CC1C)C(=O)OCC(NC(=O)c1nc3ccccc3cc1O)C(=O)NC(C)C(=O)N2C` (centres undefined), the pEC50 is less than 5.08 and the pIC50 was 8.58.
Taken in the same sequence, the figures for `[N-]=[N+]=NC1=CC(=O)c2cccc3cccc1c23` were less than 4.12 and 5.16.
`c1ccc(Nn2c(CCCCCCCCc3nnc(COc4ccccc4)n3Nc3ccccc3)nnc2COc2ccccc2)cc1`: the pEC50 was less than 5.70 and the pIC50 is less than 5.70.
On to `COc1ccc2c(ccc3c(C(=O)NCCN(C)CCNC(=O)c4cn(C)c5c4ccc4cc(OC)ccc45)cn(C)c32)c1`, for which the pEC50 is less than 3.70 and the pIC50 is 5.94.
In the same order, the values of `Nn1c(-c2ccccc2Nc2ccccc2-c2n[nH]c(=S)n2N)n[nH]c1=S` are less than 4.30 and 5.21.
In the same order, the values of `CC1C(=O)CC(c2cccs2)N(N=O)C1c1cccs1` (centres undefined) are less than 3.93 and 4.11.
Taken in the same sequence, the figures for `COc1ccc2c(c1)CCC1=C2CCS1(=O)=O` were less than 3.70 and less than 3.70.
As to `N=c1c2c(ncn1N)Oc1c(c(-c3ccccc3)nn1-c1ccccc1)C2c1ccc(Cl)cc1` (centres undefined), the pEC50 is less than 3.70 and the pIC50 is 5.68.
As to `Cc1ccc(Nc2nc(C)c(C(/C=C/c3ccc4c(c3)OCO4)=N/Nc3ccc([N+](=O)[O-])cc3[N+](=O)[O-])s2)c([N+](=O)[O-])c1`, the pEC50 is less than 4.22 and the pIC50 is 4.26.
As for `COc1ccc2c(c1)-c1nn(CCCN(C)C)c3ccc([N+](=O)[O-])c(c13)N2`, the pEC50 was less than 3.27, the result was inactive and the pIC50 is 6.77.
Consider `CC1=CC(O)C(Br)C(C)(C)C12CCC(C)(Cl)C(Br)C2` (centres undefined), for which the pEC50 is less than 3.70 and the pIC50 was 4.60.
`COc1ccccc1NC(=O)C1=C(C)NC(C)=C(C(=O)Nc2ccccc2OC)C1c1ccc(C2C(C(=O)Nc3ccccc3OC)=C(C)NC(C)=C2C(=O)Nc2ccccc2OC)cc1`: the pEC50 is less than 5.79 and the pIC50 is less than 5.79.
Regarding `COC(=O)N/N=C(\C)CC(=O)Nc1cccc([N+](=O)[O-])c1`, the pEC50 was less than 3.35 and the pIC50 was less than 3.35.
In the case of `CC(C)CCC[C@@H](C)C1CCC2[C@@H]3CC=C4C[C@@H](OP(=O)(O)OCCN(C)C)CC[C@]4(C)C3CC[C@@]21C` (some centres undefined), the pEC50 was less than 4.06 and the pIC50 is 4.93.
Consider `c1ccc2c(c1)c1c(n2CCOCCCN2CCCCC2)CCCC1`, for which the pEC50 was less than 3.70 and the pIC50 was 5.27.
Regarding `C=C1C2CC[C@H]3C45C=NC[C@](C)(CCC4)[C@H]5CCC3(C2)[C@H]1O`, the result was inactive.
Consider `O=c1c2nc(-c3ccccc3)oc2n(-c2ccccc2)c(=O)n1-c1ccccc1`, for which the pEC50 was less than 3.70 and the pIC50 was 3.93.
In the same order, the values of `CC1(C)NNC(=S)NC1=O` are less than 2.80 and less than 2.80.
In the same order, the values of `CC1=C(C)C(=O)C(C2=CC(=O)c3ccccc3C2=O)=C(C2=CC(=O)c3ccccc3C2=O)C1=O` are less than 3.70 and 5.47.
In the same order, the values of `Cc1cc(Cl)ccc1N=C1NC(=O)C(CC(=O)Nc2cccc(C)c2C)S1` (centres undefined) are less than 3.63 and 4.18.
As for `Cc1cc(=O)n2nc(CCl)sc2n1`, the pEC50 is less than 3.70 and the pIC50 is 5.03.
As for `CCOC(=O)c1nn2c(C)nnc2s1`, the outcome was inactive.
Take `CC(C)CCC[C@@H](C)C1CCC2[C@@H]3CC=C4C[C@@H](C(=O)NCC[N+](C)(C)CCCS(=O)(=O)[O-])CC[C@]4(C)C3CC[C@@]21C` (some centres undefined): the outcome was inactive.
Take `COc1ccc(NC(=O)/C(=C/N2C(=O)/C(=C\C(C)=C\c3ccccc3)SC2=S)C(C)=O)cc1`: the pEC50 was less than 3.70 and the pIC50 is 4.87.
Turning to `O=C1CN(C(=O)C2CCCN2C(=O)C2CCCN2)C(=O)CN1` (centres undefined), the pEC50 is less than 3.70 and the pIC50 was less than 3.70.
Take `Nc1ccn(C2OC(CO)C(F)C2F)c(=O)n1` (centres undefined): the pEC50 is less than 3.30 and the pIC50 was less than 3.30.
Regarding `CC(=O)NC1=NC(=O)/C(=C/c2ccc(/C=C3/C(=O)N=C(NC(C)=O)N3C)cc2)N1C`, the pEC50 is less than 3.70 and the negative logarithm of the IC50 (pIC50) was 3.82.
For the molecule `CC1(CO)C(=O)OC12CCCCC2` (centres undefined), the pEC50 is less than 2.87 and the pIC50 is less than 2.87.
As to `CCOC(=O)/C=C\SCC(N)C(=O)O` (centres undefined), the pEC50 was less than 3.24 and the pIC50 was 3.51.
Regarding `O=C1CC2C(C1Nc1ccccc1)C1C(=Nc3ccccc3)C(Nc3ccccc3)=CC1N2c1ccccc1` (centres undefined), the pEC50 was less than 4.99 and the pIC50 is less than 4.99.
On to `COc1ccc(CCNC(=S)N/C=C\c2nc3ccccc3[nH]c2=O)cc1OC`, for which the outcome was inactive.
As to `Cc1ncc([N+](=O)[O-])n1CCN(C)CCCCn1ccnc1[N+](=O)[O-]`, the pEC50 is less than 3.70 and the pIC50 is less than 3.70.
As for `c1ccc2c(c1)NC(SSC1Nc3ccccc3S1)S2` (centres undefined), the pEC50 is less than 3.70 and the pIC50 is less than 3.70.
Take `CCOc1ccc(NC(=O)/C(CC(=O)c2c[n+](=O)c3ccccc3n2[O-])=N\OCCCc2ccccc2)cc1`: the pEC50 was less than 3.91 and the pIC50 is less than 3.91.
For the molecule `CCOC(=O)c1c[nH]c2oc(/C=N/N3CC(CN4CCOCC4)OC3=O)cc2c1=O` (centres undefined), the pEC50 was less than 3.52 and the pIC50 was 3.79.
As to `O=C1CCC(=O)N1n1c(Cc2ccc(Cl)cc2)n[nH]c1=O`, the pEC50 was less than 3.70 and the pIC50 is less than 3.70.
Take `CCNc1ncnc2sc(SCc3ccccc3)nc12`: the pEC50 is less than 3.70 and the pIC50 was less than 3.70.
`CCOC(=O)C(C)c1c(C(=O)c2ccc(C)nc2)c2ccccc2n1C` (centres undefined): the result was inactive.
Regarding `CCC(C)C1NC(=O)C2CCCN2C(=O)C(Cc2ccc(O)cc2)NC(=O)C(CC(N)=O)NC(=O)C(CCC(N)=O)NC(=O)C(CO)NC(=O)C(C(C)C)NC(=O)C(N)CSSCC(C(=O)O)NC(=O)C(CCC(N)=O)NC(=O)C(C(C)C)NC1=O` (centres undefined) (H-CVSQNYPIVQC-OH; disulfide 1-11; configuration not given here), the pEC50 was less than 4.30 and the pIC50 is less than 4.30.
For `CC1=CCC(O)C=CC(C)C(O)C(C)C=C(C)C(=O)c2c(O)c(C)cc3c2C(=O)C(N)=C(NC(=O)/C=C\C=C/C=CC(C)C(O)CC1=O)C3=O` (centres undefined), the pEC50 is less than 3.74 and the pIC50 is 4.01.
Take `CN1CC[C@]2(C)c3cc(O)ccc3CC3CCCC1C32C` (some centres undefined): the result was inactive.
On to `O=C(Sc1c(-c2ccccc2)c(=O)n(-c2ccccc2)c(=S)n1-c1ccccc1)c1cccs1`, for which the pEC50 was less than 3.70 and the pIC50 is 4.66.
Taken in the same sequence, the figures for `CON(C)C(=O)C(C)NC(=O)OCc1ccccc1` (centres undefined) were less than 3.03 and 3.09.
`Cc1ccc(OS(=O)(=O)c2ccccc2[N+](=O)[O-])cc1`: the result was active.
